Legend:
IMP-1 = IMP-1 (Serratia marcescens, UniProt P52699); assay: biochemical; format: biochemical; conditions: CCF2-FA substrate, 2 hours at 25° C; read-out: IMP-1 IC50
How it was run: (§1)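 Semi-log dose-response curves, fitted with a 4-parameter model, gave IC50s. The underlying signal was CCF2-FA fluorescence following 2 hours at 25° C with enzyme, substrate and inhibitor combined.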

NDM-1 = NDM-1 (Klebsiella pneumoniae, UniProt C7C422); assay: biochemical; format: biochemical; conditions: CCF2-FA substrate, 2 hours at 25° C; read-out: NDM-1 IC50
NDM-1, sequence (C7C422 whole entry, looked up, species assumed): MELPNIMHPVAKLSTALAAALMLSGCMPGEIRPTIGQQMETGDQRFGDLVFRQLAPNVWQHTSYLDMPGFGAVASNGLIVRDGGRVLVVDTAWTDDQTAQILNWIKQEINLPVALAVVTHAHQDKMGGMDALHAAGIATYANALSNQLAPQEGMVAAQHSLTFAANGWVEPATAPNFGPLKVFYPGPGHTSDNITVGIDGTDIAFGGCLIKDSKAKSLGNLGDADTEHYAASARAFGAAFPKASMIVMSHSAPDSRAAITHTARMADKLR
How it was run: as §1

VIM-1 = VIM-1 (Pseudomonas aeruginosa (strain ATCC 15692 / DSM 22644 / CIP 104116 / JCM 14847 / LMG 12228 / 1C / PRS 101 / PAO1), UniProt A0A0F7KYQ8); assay: biochemical; conditions: CCF2-FA substrate, 2 hours at 25° C
How it was run: as §1

[1] = tested on: Escherichia coli expressing NDM-1 (CLB30005, CLB30016); format: cell-based; conditions: with imipenem 1 μg/ml; 95% inhibition of bacterial growth
How it was run: (§2)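 Restoration of imipenem susceptibility (1 μg/ml imipenem) was judged by absorbance after 22–24 h at 35° C. Test compound was added to bacteria suspended 1:100 in 1.1× CAMHB from overnight blood-agar cultures.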

[2] = tested on: Klebsiella pneumoniae expressing VIM-1 (IHMA599644); format: cell-based; conditions: with imipenem 1 μg/ml; 95% inhibition of bacterial growth
How it was run: as §2

[3] = tested on: Serratia marcescens expressing IMP-1 (CL5741); format: cell-based; conditions: with imipenem 1 μg/ml; 95% inhibition of bacterial growth
How it was run: as §2

[4] = tested on: P. aeruginosa expressing IMP-1, efflux+ (MB9798); format: cell-based, Pseudomonas aeruginosa; conditions: for P. aeruginosa expressing IMP-1, efflux+ (MB9798) MITC95: imipenem at 2 μg/mL, in the presence of a class A, C, D serine β-lactamase inhibitor closely related to relebactam; for Efflux ratio: ratio MITC95 PA_9798/MITC95 PA_9799
Text: (§3) The strain background is Pseudomonas aeruginosa PAO1.

[5] = tested on: P. aeruginosa expressing IMP-1, efflux− (MB9799); assay: Efflux: concentration of MBL inhibitor which restores susceptibility to imipenem; format: cell-based, Pseudomonas aeruginosa; conditions: imipenem at 2 μg/mL, in the presence of a class A, C, D serine β-lactamase inhibitor closely related to relebactam
Text: as §3

IMP-1, sequence (P52699 whole entry, looked up, species assumed): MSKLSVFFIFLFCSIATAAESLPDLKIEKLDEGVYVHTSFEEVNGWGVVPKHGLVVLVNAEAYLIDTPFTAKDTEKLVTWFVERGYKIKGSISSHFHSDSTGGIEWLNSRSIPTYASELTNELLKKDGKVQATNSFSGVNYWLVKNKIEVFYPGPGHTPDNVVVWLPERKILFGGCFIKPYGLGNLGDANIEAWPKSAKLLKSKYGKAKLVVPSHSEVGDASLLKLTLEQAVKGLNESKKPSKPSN

## CCOC(=O)Nc1nc2c(-c3ccc(S(=O)(=O)CCN)c(S(N)(=O)=O)c3-c3nn[nH]n3)cccc2s1 [Example 84, ethyl 4-(4-(2-aminoethylsulfonyl)-3-sulfamoyl-2-(2H-tetrazol-5-yl)phenyl)benzo[d]thiazol-2-ylcarbamate]
IMP-1
  IC50: 0.145 nM
NDM-1
  IC50: 0.0781 nM
VIM-1
  IC50: 0.14 nM
[1]
  Escherichia coli expressing NDM-1 (CLB30016) MITC95: 1.563 µM
[2]
  Klebsiella pneumoniae expressing VIM-1 (IHMA599644) MITC95: 3.125 µM
[3]
  Serratia marcescens expressing IMP-1 (CL5741) MITC95: 1.563 µM
[4]
  P. aeruginosa expressing IMP-1, efflux+ (MB9798) MITC95: 6.25 µM
  Efflux ratio: 4.00
[5]
  P. aeruginosa expressing IMP-1, efflux− (MB9799) MITC95: 1.563 µM

## NCCS(=O)(=O)c1ccc(-c2cccc3sc(NC(N)=O)nc23)c(-c2nn[nH]n2)c1S(N)(=O)=O [Example 85, 6-(2-aminoethylsulfonyl)-2-(2H-tetrazol-5-yl)-3-(2-ureidobenzo[d]thiazol-4-yl)benzenesulfonamide]
IMP-1
  IC50: 0.144 nM
NDM-1
  IC50: 0.0511 nM
VIM-1
  IC50: 0.0858 nM
[1]
  Escherichia coli expressing NDM-1 (CLB30016) MITC95: 0.3906 µM
[2]
  Klebsiella pneumoniae expressing VIM-1 (IHMA599644) MITC95: 1.563 µM
[3]
  Serratia marcescens expressing IMP-1 (CL5741) MITC95: 0.7813 µM
[4]
  P. aeruginosa expressing IMP-1, efflux+ (MB9798) MITC95: 1.563 µM
  Efflux ratio: 2.00
[5]
  P. aeruginosa expressing IMP-1, efflux− (MB9799) MITC95: 0.7813 µM

## N=C(N)c1nc2c(-c3ccc(S(=O)(=O)CCN)c(S(N)(=O)=O)c3-c3nn[nH]n3)cccc2s1 [Example 86, 4-(4-(2-aminoethylsulfonyl)-3-sulfamoyl-2-(2H-tetrazol-5-yl)phenyl)benzo[d]thiazole-2-carboximidamide]
IMP-1
  IC50: 0.869 nM
NDM-1
  IC50: 0.295 nM
VIM-1
  IC50: 0.141 nM
[1]
  Escherichia coli expressing NDM-1 (CLB30016) MITC95: 0.7813 µM
[2]
  Klebsiella pneumoniae expressing VIM-1 (IHMA599644) MITC95: 0.7813 µM
[3]
  Serratia marcescens expressing IMP-1 (CL5741) MITC95: 0.7813 µM
[4]
  P. aeruginosa expressing IMP-1, efflux+ (MB9798) MITC95: 1.563 µM
  Efflux ratio: 4.00
[5]
  P. aeruginosa expressing IMP-1, efflux− (MB9799) MITC95: 0.3906 µM

## NCCS(=O)(=O)c1ccc(-c2cccc3sc(CN)nc23)c(-c2nn[nH]n2)c1S(N)(=O)=O [Example 87, 6-(2-aminoethylsulfonyl)-3-(2-(aminomethyl)benzo[d]thiazol-4-yl)-2-(2H-tetrazol-5-yl)benzenesulfonamide]
IMP-1
  IC50: 0.562 nM
NDM-1
  IC50: 0.475 nM
VIM-1
  IC50: 0.133 nM
[1]
  Escherichia coli expressing NDM-1 (CLB30016) MITC95: 0.7813 µM
[2]
  Klebsiella pneumoniae expressing VIM-1 (IHMA599644) MITC95: 0.7813 µM
[3]
  Serratia marcescens expressing IMP-1 (CL5741) MITC95: 0.7813 µM
[4]
  P. aeruginosa expressing IMP-1, efflux+ (MB9798) MITC95: 0.7813 µM
  Efflux ratio: 2.00
[5]
  P. aeruginosa expressing IMP-1, efflux− (MB9799) MITC95: 0.3906 µM

## NCCS(=O)(=O)c1ccc(-c2cccc3sc(C(=O)O)nc23)c(-c2nn[nH]n2)c1S(N)(=O)=O [Example 88, 4-(4-(2-aminoethylsulfonyl)-3-sulfamoyl-2-(2H-tetrazol-5-yl)phenyl)benzo[d]thiazole-2-carboxylic acid]
IMP-1
  IC50: 0.144 nM
NDM-1
  IC50: 0.0522 nM
VIM-1
  IC50: 0.158 nM
[1]
  Escherichia coli expressing NDM-1 (CLB30016) MITC95: 1.563 µM
[2]
  Klebsiella pneumoniae expressing VIM-1 (IHMA599644) MITC95: 12.5 µM
[3]
  Serratia marcescens expressing IMP-1 (CL5741) MITC95: 6.25 µM
[4]
  P. aeruginosa expressing IMP-1, efflux+ (MB9798) MITC95: 6.25 µM
  Efflux ratio: 2.00
[5]
  P. aeruginosa expressing IMP-1, efflux− (MB9799) MITC95: 3.125 µM

## NCCS(=O)(=O)c1ccc(-c2cccc3sc(C(N)=O)nc23)c(-c2nn[nH]n2)c1S(N)(=O)=O [Example 89, 4-(4-(2-aminoethylsulfonyl)-3-sulfamoyl-2-(2H-tetrazol-5-yl)phenyl)benzo[d]thiazole-2-carboxamide]
IMP-1
  IC50: 0.601 nM
NDM-1
  IC50: 0.277 nM
VIM-1
  IC50: 0.152 nM
[1]
  Escherichia coli expressing NDM-1 (CLB30016) MITC95: 1.563 µM
[2]
  Klebsiella pneumoniae expressing VIM-1 (IHMA599644) MITC95: 3.125 µM
[3]
  Serratia marcescens expressing IMP-1 (CL5741) MITC95: 1.563 µM
[4]
  P. aeruginosa expressing IMP-1, efflux+ (MB9798) MITC95: 3.125 µM
  Efflux ratio: 2.00
[5]
  P. aeruginosa expressing IMP-1, efflux− (MB9799) MITC95: 1.563 µM

## CNc1nc2c(-c3ccc(S(=O)(=O)CCN)c(S(N)(=O)=O)c3-c3nn[nH]n3)cccc2s1 [Example 90, 6-(2-aminoethylsulfonyl)-3-(2-(methylamino)benzo[d]thiazol-4-yl)-2-(2H-tetrazol-5-yl)benzene sulfonamide]
IMP-1
  IC50: 0.0995 nM
NDM-1
  IC50: 0.0746 nM
VIM-1
  IC50: 0.146 nM
[1]
  Escherichia coli expressing NDM-1 (CLB30016) MITC95: 0.7813 µM
[2]
  Klebsiella pneumoniae expressing VIM-1 (IHMA599644) MITC95: 1.563 µM
[3]
  Serratia marcescens expressing IMP-1 (CL5741) MITC95: 1.563 µM
[4]
  P. aeruginosa expressing IMP-1, efflux+ (MB9798) MITC95: 1.563 µM
  Efflux ratio: 2.00
[5]
  P. aeruginosa expressing IMP-1, efflux− (MB9799) MITC95: 0.7813 µM

## NCCS(=O)(=O)c1ccc(-c2cccc3[nH]c(C(=O)O)nc23)c(-c2nn[nH]n2)c1S(N)(=O)=O [Example 91, 4-(4-((2-aminoethyl)sulfonyl)-3-sulfamoyl-2-(2H-tetrazol-5-yl)phenyl)-1H-benzo[d]imidazole-2-carboxylic Acid]
IMP-1
  IC50: 0.386 nM
NDM-1
  IC50: 0.189 nM
VIM-1
  IC50: 0.239 nM
[1]
  Escherichia coli expressing NDM-1 (CLB30016) MITC95: 1.172 µM
[2]
  Klebsiella pneumoniae expressing VIM-1 (IHMA599644) MITC95: 2.344 µM
[3]
  Serratia marcescens expressing IMP-1 (CL5741) MITC95: 1.563 µM
[4]
  P. aeruginosa expressing IMP-1, efflux+ (MB9798) MITC95: 0.7813 µM
  Efflux ratio: 1.00
[5]
  P. aeruginosa expressing IMP-1, efflux− (MB9799) MITC95: 0.7813 µM

## C[C@H](N)CS(=O)(=O)c1ccc(-c2cccc3[nH]c(N)nc23)c(-c2nn[nH]n2)c1S(N)(=O)=O [Example 92, 3-(2-amino-1H-benzo[d]imidazol-4-yl)-6-((S)-2-aminopropylsulfonyl)-2-(2H-tetrazol-5-yl)benzenesulfonamide]
IMP-1
  IC50: 0.612 nM
NDM-1
  IC50: 0.141 nM
VIM-1
  IC50: 0.223 nM
[1]
  Escherichia coli expressing NDM-1 (CLB30016) MITC95: 0.2969 µM
[2]
  Klebsiella pneumoniae expressing VIM-1 (IHMA599644) MITC95: 0.8542 µM
[3]
  Serratia marcescens expressing IMP-1 (CL5741) MITC95: 0.6406 µM
[4]
  P. aeruginosa expressing IMP-1, efflux+ (MB9798) MITC95: 0.4777 µM
  Efflux ratio: 0.81
[5]
  P. aeruginosa expressing IMP-1, efflux− (MB9799) MITC95: 0.5893 µM

## C[C@H](N)CS(=O)(=O)c1ccc(-c2cccc3sc(N)nc23)c(-c2nn[nH]n2)c1S(N)(=O)=O [Example 93, 3-(2-aminobenzo[d]thiazol-4-yl)-6-((S)-2-aminopropylsulfonyl)-2-(2H-tetrazol-5-yl)benzenesulfonamide]
IMP-1
  IC50: 0.13 nM
NDM-1
  IC50: 0.0732 nM
VIM-1
  IC50: 0.13 nM
[1]
  Escherichia coli expressing NDM-1 (CLB30016) MITC95: 1.172 µM
[2]
  Klebsiella pneumoniae expressing VIM-1 (IHMA599644) MITC95: 3.125 µM
[3]
  Serratia marcescens expressing IMP-1 (CL5741) MITC95: 0.7813 µM
[4]
  P. aeruginosa expressing IMP-1, efflux+ (MB9798) MITC95: 0.7813 µM
  Efflux ratio: 1.00
[5]
  P. aeruginosa expressing IMP-1, efflux− (MB9799) MITC95: 0.7813 µM

## CC(C)(N)CS(=O)(=O)c1ccc(-c2cccc3sc(N)nc23)c(-c2nn[nH]n2)c1S(N)(=O)=O [Example 94, 6-(2-amino-2-methylpropylsulfonyl)-3-(2-aminobenzo[d]thiazol-4-yl)-2-(2H-tetrazol-5-yl)benzenesulfonamide]
IMP-1
  IC50: 0.504 nM
NDM-1
  IC50: 0.206 nM
VIM-1
  IC50: 0.222 nM
[1]
  Escherichia coli expressing NDM-1 (CLB30016) MITC95: 0.7813 µM
[2]
  Klebsiella pneumoniae expressing VIM-1 (IHMA599644) MITC95: 3.125 µM
[3]
  Serratia marcescens expressing IMP-1 (CL5741) MITC95: 1.563 µM
[4]
  P. aeruginosa expressing IMP-1, efflux+ (MB9798) MITC95: 3.125 µM
  Efflux ratio: 2.00
[5]
  P. aeruginosa expressing IMP-1, efflux− (MB9799) MITC95: 1.563 µM

## Nc1nc2c(-c3ccc(S(=O)(=O)CC4(N)CC4)c(S(N)(=O)=O)c3-c3nn[nH]n3)cccc2s1 [Example 95, 3-(2-aminobenzo[d]thiazol-4-yl)-6-((1-aminocyclopropyl)methylsulfonyl)-2-(2H-tetrazol-5-yl)benzenesulfonamide]
IMP-1
  IC50: 0.221 nM
NDM-1
  IC50: 0.138 nM
VIM-1
  IC50: 0.293 nM
[1]
  Escherichia coli expressing NDM-1 (CLB30016) MITC95: 1.563 µM
[2]
  Klebsiella pneumoniae expressing VIM-1 (IHMA599644) MITC95: 6.25 µM
[3]
  Serratia marcescens expressing IMP-1 (CL5741) MITC95: 1.563 µM
[4]
  P. aeruginosa expressing IMP-1, efflux+ (MB9798) MITC95: 3.125 µM
  Efflux ratio: 2.00
[5]
  P. aeruginosa expressing IMP-1, efflux− (MB9799) MITC95: 1.563 µM

## Nc1nc2c(-c3ccc(S(=O)(=O)CC(N)CO)c(S(N)(=O)=O)c3-c3nn[nH]n3)cccc2s1 (stereo not drawn) [Example 96, 6-(2-amino-3-hydroxypropylsulfonyl)-3-(2-aminobenzo[d]thiazol-4-yl)-2-(2H-tetrazol-5-yl)benzenesulfonamide]
IMP-1
  IC50: 0.265 nM
NDM-1
  IC50: 0.122 nM
VIM-1
  IC50: 0.185 nM
[1]
  Escherichia coli expressing NDM-1 (CLB30016) MITC95: 1.563 µM
[2]
  Klebsiella pneumoniae expressing VIM-1 (IHMA599644) MITC95: 3.125 µM
[3]
  Serratia marcescens expressing IMP-1 (CL5741) MITC95: 1.563 µM
[4]
  P. aeruginosa expressing IMP-1, efflux+ (MB9798) MITC95: 0.7813 µM
  Efflux ratio: 0.50
[5]
  P. aeruginosa expressing IMP-1, efflux− (MB9799) MITC95: 1.563 µM
